Reference: ChEMBL document CHEMBL2385043, “Recent advances in malaria drug discovery” (Bioorg Med Chem Lett, 2013)

How the values were obtained:
Plasmodium falciparum [1] = test: Antiplasmodial activity against blood stage of Plasmodium falciparum; type: functional, organism-based
Plasmodium yoelii = test: Antiplasmodial activity against liver stage of Plasmodium yoelii; type: functional, organism-based
[2] = Half life in human; type: ADME, organism-based; conditions: in vivo
Plasmodium berghei [3] = test: Antimalarial activity against Plasmodium berghei str. ANKA infected in po dosed mouse assessed as reduction in parasitemia; type: functional
Plasmodium falciparum [4] = test: Antiplasmodial activity against erythrocytic stage of multidrug-resistant Plasmodium falciparum W2; type: functional, organism-based
Plasmodium vinckei [5] = test: Antimalarial activity against Plasmodium vinckei infected in ip dosed Swiss mouse at 0.5 to 1% parasitemia; type: functional
Plasmodium vinckei [6] = test: Antimalarial activity against Plasmodium vinckei infected in po dosed Swiss mouse; type: functional
Plasmodium vinckei [7] = test: Antimalarial activity against Plasmodium vinckei infected in ip dosed Swiss mouse at 5 to 10% parasitemia; type: functional
Plasmodium [8] = test: Antimalarial activity against Plasmodium infected in ip dosed mouse; type: functional
Plasmodium [9] = test: Antiplasmodial activity against Plasmodium; type: functional
[10] = Oral bioavailability in mouse; type: ADME, organism-based; conditions: in vivo
Plasmodium falciparum [11] = test: Antiplasmodial activity against multidrug-resistant Plasmodium falciparum W2 infected in human erythrocytes; type: functional, organism-based
[12] = Terminal half life in human; type: ADME, organism-based; conditions: in vivo, read-out: beta t1/2 (converted)
Plasmodium [13] = test: Antimalarial activity against Plasmodium infected in mouse; type: functional
[14] = Toxicity in po dosed Sprague-Dawley rat; type: organism-based; conditions: in vivo
Plasmodium falciparum [15] = test: Antiplasmodial activity against Plasmodium falciparum; type: functional, organism-based
Plasmodium berghei [16] = test: Antimalarial activity against erythrocytic stage of Plasmodium berghei infected in po dosed mouse administered for 3 days; type: functional; conditions: 72 h
Plasmodium falciparum [17] = test: Antimalarial activity against Plasmodium falciparum infected in SCID mouse; type: functional
Plasmodium falciparum [18] = test: Antiplasmodial activity against drug-sensitive Plasmodium falciparum NF54; type: functional, organism-based
Plasmodium yoelii yoelii = test: Antimalarial activity against Plasmodium yoelii yoelii infected in mouse; type: functional
Plasmodium falciparum [19] = test: Antiplasmodial activity against Plasmodium falciparum by SYBR Green staining-based fluorescence assay; type: functional, organism-based
Plasmodium falciparum [20] = test: Antimalarial activity against multidrug-resistant Plasmodium falciparum W2 infected in ip dosed mouse assessed as reduction in parasitemia administered on day 64 post-infection; type: functional; conditions: 1536 h
Plasmodium falciparum [21] = test: Antiplasmodial activity against multidrug-resistant Plasmodium falciparum W2 infected in human erythrocytes after 72 hrs by ELISA; type: functional, organism-based; conditions: W2, 72 h
Plasmodium falciparum [22] = test: Antiplasmodial activity against Plasmodium falciparum VS/1 expressing DHFR quadruple mutation by [3H]-hypoxanthine incorporation assay; type: functional, organism-based
Plasmodium falciparum [23] = test: Antiplasmodial activity against wild type Plasmodium falciparum TM4 by [3H]-hypoxanthine incorporation assay; conditions: TM4, 3 h
Plasmodium falciparum [24] = test: Antiplasmodial activity against multidrug-resistant Plasmodium falciparum W2 infected in human erythrocytes after 24 hrs by [3H]-hypoxanthine incorporation assay
Plasmodium berghei [25] = test: Antimalarial activity against Plasmodium berghei infected in po dosed mouse; type: functional
[26] = Half life in Sprague-Dawley rat at 3 mg/kg, iv; type: ADME, organism-based; design: dose 3 mg/kg, route intravenous; conditions: in vivo
[27] = Half life in po dosed Sprague-Dawley rat by LC/MS/MS analysis; type: ADME, organism-based; conditions: in vivo
[28] = Oral bioavailability in Sprague-Dawley rat; type: ADME, organism-based; conditions: in vivo
Plasmodium falciparum [29] = test: Antimalarial activity against Plasmodium falciparum VS/1 expressing DHFR quadruple mutation infected in po dosed SCID mouse assessed as reduction in parasitemia administered 3 days post infection measured on day 6; type: functional; conditions: VS/1, po
Plasmodium falciparum [30] = test: Antiplasmodial activity against chloroquine-resistant Plasmodium falciparum K1; type: functional, organism-based
Plasmodium falciparum [31] = test: Antiplasmodial activity against drug-sensitive Plasmodium falciparum 3D7; type: functional, organism-based
Plasmodium falciparum [32] = test: Antiplasmodial activity against erythrocytic stage of multidrug-resistant Plasmodium falciparum K1; type: functional, organism-based
Lysine--tRNA ligase = Lysine--tRNA ligase (Homo sapiens, UniProt Q15046); test: Inhibition of human recombinant cytoplasmic lysyl-tRNA synthetase
Chain of Lysine--tRNA ligase (Q15046 whole entry): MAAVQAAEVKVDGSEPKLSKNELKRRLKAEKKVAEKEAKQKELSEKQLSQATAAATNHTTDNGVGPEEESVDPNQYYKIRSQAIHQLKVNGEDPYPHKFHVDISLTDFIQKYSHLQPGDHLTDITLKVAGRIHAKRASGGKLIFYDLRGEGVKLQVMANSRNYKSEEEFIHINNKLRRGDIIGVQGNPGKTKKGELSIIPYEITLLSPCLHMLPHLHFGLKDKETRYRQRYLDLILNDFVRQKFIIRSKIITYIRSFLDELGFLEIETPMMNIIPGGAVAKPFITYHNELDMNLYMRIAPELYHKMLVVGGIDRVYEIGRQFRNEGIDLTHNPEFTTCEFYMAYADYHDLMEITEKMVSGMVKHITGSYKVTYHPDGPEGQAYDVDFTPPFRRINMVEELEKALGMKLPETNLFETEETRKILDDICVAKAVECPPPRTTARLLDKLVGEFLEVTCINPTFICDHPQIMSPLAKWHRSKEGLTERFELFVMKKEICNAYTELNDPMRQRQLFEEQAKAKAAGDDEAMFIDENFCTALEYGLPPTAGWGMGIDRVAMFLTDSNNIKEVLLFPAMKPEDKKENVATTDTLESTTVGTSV

Plasmodium falciparum [33] = test: Antiplasmodial activity against liver stage of drug-sensitive Plasmodium falciparum 3D7; type: functional, organism-based; conditions: 3D7, Liver
Plasmodium falciparum [34] = test: Antiplasmodial activity against liver stage of drug-sensitive Plasmodium falciparum D10; type: functional, organism-based

**Q.** Which EC50 (Plasmodium falciparum [1]) does the source give for `C[C@H](NC(=O)[C@H](Cc1ccccc1)C[C@@H](O)[C@H](Cc1ccccc1)NC(=O)OC(C)(C)C)C(=O)N[C@@H]1C(=O)N(C)c2ccccc2-c2ccccc21` here?
**A.** 17 nM

**Q.** And the EC50 (Plasmodium yoelii)?
**A.** 7.8 nM

**Q.** With `O[C@@H](c1cc(C(F)(F)F)nc2c(C(F)(F)F)cccc12)[C@H]1CCCCN1` (relative stereo) [(S,R)-MEFLOQUINE] as the molecule, how does the half-life [2] read?
**A.** 336 h

**Q.** And the ED50 (Plasmodium berghei [3])?
**A.** 3.3 mg/kg

**Q.** And the EC50 (Plasmodium falciparum [4])?
**A.** 7 nM

**Q.** For `Cc1c(CCO)sc[n+]1CCCCCCCCCCCC[n+]1csc(CCO)c1C.[I-].[I-]`, which ED50 (Plasmodium vinckei [5]) is on record?
**A.** 1 mg/kg/day

**Q.** What about the ED50 (Plasmodium vinckei [6]) of the same molecule?
**A.** 13 mg/kg/day

**Q.** And the ED50 (Plasmodium vinckei [7])?
**A.** ≤ 0.5 mg/kg/day

**Q.** What about the ED50 (Plasmodium [8]) of the same molecule?
**A.** 0.2 mg/kg/day

**Q.** What about the EC50 (Plasmodium [9]) of the same molecule?
**A.** 2 nM

**Q.** What about the bioavailability [10] of the same molecule?
**A.** 2%

**Q.** Which results are given for `CCCCN(CCCC)CC(O)c1cc(Cl)cc2c1-c1ccc(Cl)cc1/C2=C/c1ccc(Cl)cc1` (configuration not stated) [LUMEFANTRINE]?
**A.** EC50 (Plasmodium falciparum [11]): 0.45 nM; half-life [12]: 72 h

**Q.** Which results are given for `c1cc([C@H]2CC[C@]3(CC2)OO[C@]2(O3)C3CC4CC(C3)CC2C4)ccc1OCCN1CCOCC1` [ARTEFENOMEL]?
**A.** ED50 (Plasmodium [13]): 20 mg/kg; MTD [14]: 300 mg/kg; EC50 (Plasmodium falciparum [15]): 3.4 nM

**Q.** For `CC(=O)N1CCN(c2ccc(CN(C(=O)/C=C/c3ccc(C(F)(F)F)cc3)[C@@H](Cc3ccccc3)C(=O)N3CCN(Cc4ccc(N(C)CCO)cc4)CC3)cc2)CC1`, which ED90 (Plasmodium berghei [16]) is on record?
**A.** 54 mg/kg/day

**Q.** And the ED90 (Plasmodium falciparum [17])?
**A.** 8.4 mg/kg/day

**Q.** What about the EC50 (Plasmodium falciparum [18]) of the same molecule?
**A.** 1 nM

**Q.** With `C[C@@]12OC(=O)[C@]1([C@@H](O)[C@@H]1C=CCCC1)NC(=O)[C@@H]2CCCl` [MARIZOMIB] as the molecule, how does the ED50 (Plasmodium yoelii yoelii) read?
**A.** 0.25 mg/kg/day

**Q.** And the EC50 (Plasmodium falciparum [19])?
**A.** 11 nM

**Q.** With `Clc1ccc2c(N3CCN(CCCN4CCN(c5ccnc6cc(Cl)ccc56)CC4)CC3)ccnc2c1` [PIPERAQUINE] as the molecule, how does the ED50 (Plasmodium falciparum [20]) read?
**A.** 4.5 mg/kg

**Q.** And the half-life [2]?
**A.** 192 h

**Q.** What about the EC50 (Plasmodium falciparum [21]) of the same molecule?
**A.** 12.5 nM

**Q.** With `CCc1nc(N)nc(N)c1-c1ccc(Cl)cc1` [PYRIMETHAMINE] as the molecule, how does the IC50 (Plasmodium falciparum [22]) read?
**A.** > 100000 nM

**Q.** What about the IC50 (Plasmodium falciparum [23]) of the same molecule?
**A.** 58 nM

**Q.** Which EC50 (Plasmodium falciparum [24]) does the source give for `CCN(CC)CCCC(C)Nc1ccnc2cc(Cl)ccc12` (configuration not stated) [CHLOROQUINE] here?
**A.** 49 nM

**Q.** What about the ED90 (Plasmodium falciparum [17]) of the same molecule?
**A.** 6.4 mg/kg/day

**Q.** What about the ED50 (Plasmodium berghei [25]) of the same molecule?
**A.** 1.9 mg/kg

**Q.** With `CC(C)(N)CNC(=O)C[C@H]1CC[C@]2(CC1)OO[C@]1(O2)C2CC3CC(C2)CC1C3` [OZ277] as the molecule, how does the half-life [26] read?
**A.** 1 h

**Q.** Which half-life [27] does the source give for `CCc1nc(N)nc(N)c1OCCCOc1ccccc1CCC(=O)O.Cl` here?
**A.** 7.3 h

**Q.** What about the bioavailability [28] of the same molecule?
**A.** 46%

**Q.** What about the ED50 (Plasmodium falciparum [29]) of the same molecule?
**A.** 0.3 mg/kg/day

**Q.** And the IC50 (Plasmodium falciparum [22])?
**A.** 56 nM

**Q.** And the IC50 (Plasmodium falciparum [23])?
**A.** 4.6 nM

**Q.** Which ED50 (Plasmodium [13]) does the source give for `CN1CCN(C2CCN(C(=O)CC3CCC4(CC3)OOC3(OO4)C4CC5CC(C4)CC3C5)CC2)CC1` (configuration not stated) here?
**A.** 1.8 mg/kg/day

**Q.** And the IC50 (Plasmodium falciparum [30])?
**A.** 1.9 nM

**Q.** What about the IC50 (Plasmodium falciparum [31]) of the same molecule?
**A.** 4.9 nM

**Q.** Which EC50 (Plasmodium falciparum [32]) does the source give for `CSc1ccc2nc(N(Cc3cccnc3)C(=O)c3ccc(C(C)(C)C)cc3)sc2c1` here?
**A.** 326 nM

**Q.** For `C[C@H]1CCC[C@H](C[C@H]2Cc3cc(O)cc(O)c3C(=O)O2)O1` [CLADOSPORIN], which IC50 (Lysine--tRNA ligase) is on record?
**A.** > 20000 nM

**Q.** And the EC50 (Plasmodium falciparum [33])?
**A.** 45 nM

**Q.** And the EC50 (Plasmodium falciparum [34])?
**A.** 90 nM
